Consider 1 molecule from EP2343074A1, “Use of purine analogues for treating airway diseases” (Merck Serono S.A., priority 2009, dated 2011).

The subject of one series is BALB/c mice. The class given is in vivo. Conditions: female BALB/c mice. On the procedure:
Female BALB/c mice, aged 10-12 wk, are housed in environmentally controlled specific pathogen-free conditions for 1 wk before study and for the duration of the experiments, which are performed according to J Appl Physiol, VOL 97, 2004, 2258-2265. Accordingly, mice are sensitized with intraperitoneal ovalbumin conjugated to aluminum potassium sulfate, as described in Am J Respir Cell Mol Biol 21: 473-479, 1999. Sensitized mice are subjected to either brief or chronic periods of allergen exposure, as described in Am J Respir Cell Mol Biol 27: 526-535, 2002. Control mice are subjected to the same sensitization protocol but are receiving saline challenges.
Allergen-challenged and control mice are studied at 24 h after the final exposure (at day 21) in the brief allergen-challenge protocol and at week 4 after the final exposure in the chronic allergen-challenge protocol. […]
At day 21 or week 4, respectively, the underlying contributors to airway responsiveness, namely airway reactivity [slope of increase in total respiratory system resistance (Rrs) for a given increase in MCh dose], airway sensitivity (lowest dose of MCh to produce bronchoconstriction), and the maximum inducible bronchoconstriction (maximum Rrs) are measured following brief or chronic allergen challenge. These components of airway responsiveness are measured based on the response of Rrs to saline and increasing (10, 33, 100, and 330 µg/kg) intravenous doses of MCh. Rrs is measured by using the flow interrupter technique, modified for use in mice, and described in Am J Respir Cell Mol Biol 21: 473-479, 1999, Am J Respir Cell Mol Biol 27: 526-535, 2002 and J Appl Physiol 89: 413-421, 2000. Total respiratory system resistance (Rrs) is measured in response to increasing doses of intravenous methacholine (MCh). Using the resulting Rrs-MCh dose-response curve, indexes of airway reactivity (Slope Rrs), airway sensitivity, or the lowest dose to produce bronchoconstriction (Break Rrs) and maximal degree of bronchoconstriction (Max Rrs) are measured. […]

Series [1] deals with patient having asthma with recurring asthma attacks. Nature of the series: Treatment of an asthma patient with oral cladribine tablets. It is filed as in vivo. Conditions: dosage regimen disclosed in WO2006067141. On the procedure: A patient having asthma with recurring asthma attacks is treated with oral cladribine tablets and following the dosage regimen disclosed in WO2006067141. As a result, the symptoms of asthma and airway hyperresponsiveness are reduced in this patient.

As to `Nc1nc(Cl)nc2c1ncn2[C@H]1C[C@H](O)[C@@H](CO)O1` [cladribine, 2-chloro-9-(2'-deoxy-beta-D-ribofuranosyl)-adenine], in the series on BALB/c mice (brief or chronic allergen exposure, cladribine intraperitoneally 15 mg/kg per injection, as compared to the control), the “signs of asthma, increased airway reactivity and maximal bronchoconstriction” value is “beneficial to reduce”. The “asthma related symptoms such as increased bronchoconstriction and allergen-induced development of AHR” value in the series on BALB/c mice (brief or chronic allergen exposure, cladribine intraperitoneally on days 1, 5 and 9, 15 mg/kg body weight per injection, versus phosphate buffer without cladribine) is recorded as “reduces or abrogates”. Moreover, the host toxicity entry with BALB/c mice (cladribine intraperitoneally on days 1, 5 and 9, 15 mg/kg body weight per injection) was “little or no host toxicity”. Moreover, the “symptoms of asthma and airway hyperresponsiveness” value in series [1] is given as “reduced”.
